# Where “and” joins values, the source holds several entries; their conditions need not be identical. Equal values may be shown once.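 1) Cells in 96-well plates. 2) Compound, 48 h, 5 concentrations. 3) Linear interpolation between surrounding doses. 4) Unreached endpoint = highest concentration. Abbreviation: GI50, concentration required for 50% inhibition of growth. The concentration for full growth arrest is given as TGI.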
# Columns and labels:
# Test in all cases: NCI anticancer screen, dose series, 48 h
# UACC-257 melanoma = test system: UACC-257 melanoma
# CAKI-1 renal = test system: CAKI-1 renal
# SK-MEL-2 melanoma = test system: SK-MEL-2 melanoma
# SNB-19 CNS = test system: SNB-19 CNS
# MDA-MB-231 breast = test system: MDA-MB-231 breast
# HCT-116 colon = test system: HCT-116 colon
# EKVX NSCLC = test system: EKVX NSCLC
# HT29 colon = test system: HT29 colon
# MALME-3M melanoma = test system: MALME-3M melanoma
# K-562 leukemia = test system: K-562 leukemia
Structure (SMILES),GI50 (UACC-257 melanoma),TGI (UACC-257 melanoma),GI50 (CAKI-1 renal),TGI (CAKI-1 renal),GI50 (SK-MEL-2 melanoma),TGI (SK-MEL-2 melanoma),GI50 (SNB-19 CNS),TGI (SNB-19 CNS),GI50 (MDA-MB-231 breast),TGI (MDA-MB-231 breast),GI50 (HCT-116 colon),TGI (HCT-116 colon),GI50 (EKVX NSCLC),TGI (EKVX NSCLC),GI50 (HT29 colon),TGI (HT29 colon),GI50 (MALME-3M melanoma),TGI (MALME-3M melanoma),GI50 (K-562 leukemia),TGI (K-562 leukemia)
COc1ncnc2c(-c3ccccc3)cn(COCc3ccccc3)c12,2.74 µM,9.31 µM,3.02 µM,> 100 µM,2.08 µM,4.99 µM,6.53 µM,> 100 µM,4.04 µM,> 100 µM,2.67 µM,23 µM,2.37 µM,> 100 µM,3.49 µM,> 100 µM,2.52 µM,7.69 µM,3.32 µM,> 100 µM
C/C=C(\C)C(=O)NC1=CC[C@@]2(C)C(=CCC3C2CC[C@@]2(C)C3CC[C@@H]2C(C)N(C)C)C1=O (some centres undefined),2.88 µM,9.36 µM,2.86 µM,11.4 µM,7.52 µM,22.9 µM,15.9 µM,> 64.1 µM,3.14 µM,9.99 µM,1.41 µM,3.1 µM,3.17 µM,51.8 µM,0.57 µM,2.6 µM,2.1 µM,5.34 µM,0.451 µM,2.86 µM
C=C(C)C(O)CCC1(C)C=Cc2c(c(C)cc3c2[nH]c2ccccc23)O1 (centres undefined),–,20.5 µM,–,–,2.11 µM,8.32 µM,11.5 µM,25 µM and 23.6 µM,–,11.4 µM,9.87 µM,25 µM and 21.5 µM,–,–,1.71 µM,8.53 µM and 3.26 µM,–,25 µM and 24.7 µM,2.78 µM,24.6 µM and 7.13 µM
OC(Cc1ccncc1)C(Cl)(Cl)Cl (centres undefined),> 100 µM,> 100 µM,32.4 µM,> 100 µM,> 100 µM,> 100 µM,> 100 µM,> 100 µM,> 100 µM,> 100 µM,–,–,86.3 µM,> 100 µM,> 100 µM,> 100 µM,> 100 µM,> 100 µM,> 100 µM,> 100 µM
CC1(C)C2CCC13C(=O)C1OC3(C2)C2C(=O)c3cc4ccccc4cc3C(=O)C12 (centres undefined),20.8 µM,64.8 µM,1.29 µM,5.33 µM,42.2 µM,> 100 µM,5.57 µM,46.4 µM,22.1 µM,49.4 µM,12 µM,> 100 µM,–,–,11.3 µM,> 100 µM,7.3 µM,43.8 µM,4.92 µM,33.7 µM
COc1cc(C(O)CCBr)c(OC)cc1C (centres undefined),–,> 100 µM,–,> 100 µM,–,68.2 µM,–,> 100 µM,–,> 72.7 µM,–,> 100 µM,–,> 100 µM,–,> 58.3 µM,–,> 100 µM,–,> 100 µM
N#Cc1ccc(OCc2nc(N)nc(N)c2-c2ccc(Cl)c(Cl)c2)cc1,0.593 µM,37.2 µM,3.09 µM,> 100 µM,3.55 µM,22 µM,2.79 µM,> 100 µM,4.4 µM,> 100 µM,0.552 µM,> 100 µM,–,–,0.592 µM,> 100 µM,23.5 µM,84.8 µM,0.359 µM,> 100 µM
Cc1c[n+](=O)c2ccccc2n1[O-],–,> 100 µM,–,> 100 µM,–,> 100 µM,–,> 100 µM,–,> 100 µM,–,> 100 µM,–,> 100 µM,–,> 100 µM,–,> 100 µM,–,> 100 µM
CC(C)Cn1cnc2c(SCc3ccc(Cl)cc3Cl)nc(N)nc21,–,74.6 µM,–,> 100 µM,–,> 100 µM,–,> 100 µM,–,> 100 µM,–,> 100 µM,–,> 100 µM,–,> 100 µM,–,71.6 µM,–,> 100 µM
COc1cc(/C=C\c2cc(OC)c(OC)c(OC)c2)cc(NC(=O)/C=C/c2cc(OC)c(OC)c(OC)c2)c1OC,10.1 µM,> 100 µM,2.8 µM,> 100 µM,2.69 µM,9.77 µM,48.6 µM,> 100 µM,5.43 µM,> 100 µM,4.57 µM,> 100 µM,15.7 µM,> 100 µM,3.87 µM,> 100 µM,3.34 µM,> 100 µM,–,–
Clc1nc(Cl)c2ncn(CC3(Cn4cnc5c(Cl)nc(Cl)nc54)COC3)c2n1,0.197 µM,0.427 µM,0.195 µM,0.496 µM,–,–,0.332 µM,0.803 µM,0.19 µM,0.371 µM,0.182 µM,0.35 µM,0.821 µM,2.43 µM,0.226 µM,> 100 µM,0.187 µM,0.433 µM,–,–
C=CCN=c1sc2c(n1NC(=O)c1cc3ccc1CCc1ccc(cc1)CC3)C(=O)c1ccccc1C2=O,1.55 µM,3.15 µM,1.18 µM,2.86 µM,1.74 µM,4.32 µM,1.67 µM,3.44 µM,1.27 µM,6.68 µM,0.577 µM,2.58 µM,1.39 µM,3.46 µM,3.09 µM,> 100 µM,0.383 µM,1.58 µM,–,–
CN1CCC2(CC1)ONC1=NCCN12,> 100 µM,> 100 µM,30.6 µM,90 µM,> 100 µM,> 100 µM,> 100 µM,> 100 µM,46 µM,> 100 µM,32.4 µM,> 100 µM,92.5 µM,> 100 µM,53.7 µM,> 100 µM,20.1 µM,73.7 µM,37.7 µM,> 100 µM
O=C(Nc1ccc([As](=O)(O)O)cc1)Nc1cccc(Cl)c1Cl,–,> 100 µM,–,> 100 µM,–,> 100 µM,–,> 100 µM,–,> 100 µM,–,> 100 µM,–,> 100 µM,–,> 100 µM,–,> 100 µM,–,> 100 µM
CC(=O)NC1C(OC[C@@H](CC(=O)N[C@@H](CC(=O)O)CC(=O)N[C@H](CC(=O)N[C@@H](CCCN)CC(=O)N[C@@H](CCCN)CC(=O)N[C@H](CC(N)=O)C(C)C)C(C)C)NC(=O)C[C@@H](N)C(C)C)OC(CO)C(O)C1O (some centres undefined),> 100 µM,> 100 µM,> 100 µM,> 100 µM,> 100 µM,> 100 µM,> 100 µM,> 100 µM,> 100 µM,> 100 µM,> 100 µM,> 100 µM,> 100 µM,> 100 µM,> 100 µM,> 100 µM,> 100 µM,> 100 µM,> 100 µM,> 100 µM
C=C1C(=O)O[C@H]2[C@H]1CC/C(CNC(=O)/C=C/c1cc(OC)c(OC)c(OC)c1)=C\CC[C@@]1(C)O[C@@H]21,1.76 µM,5.72 µM,–,–,1.73 µM,7.18 µM,11.9 µM,32 µM,3.01 µM,14.1 µM,0.76 µM,2.1 µM,2.22 µM,13.8 µM,1.59 µM,8.31 µM,1.34 µM,3.44 µM,0.601 µM,4.13 µM
N#CC1(C#N)C2(c3ccccc3)OC(c3ccccc3)(c3cc4ccccc4cc32)C1(C#N)C#N,–,> 54.2 µM,–,24.1 µM,–,37.9 µM,–,32.2 µM,–,31.9 µM,–,20 µM,–,32.1 µM,–,29.3 µM,–,37.9 µM,–,8.18 µM
CCCCON(OC(=O)c1ccc2ccccc2c1)C(=O)c1ccccc1,> 100 µM,> 100 µM,> 100 µM,> 100 µM,> 100 µM,> 100 µM,> 100 µM,> 100 µM,> 100 µM,> 100 µM,34.8 µM,> 100 µM,> 100 µM,> 100 µM,> 100 µM,> 100 µM,> 100 µM,> 100 µM,41.7 µM,> 100 µM
C[C@]12CC[C@@H]3c4ccc(OC(=O)N(CCCl)CCCl)cc4CC[C@H]3[C@@H]1CC[C@@H]2O,3.81 µM,15 µM,2.44 µM,–,4.31 µM,14.8 µM,7.04 µM,–,2.59 µM,8.29 µM,1.6 µM,10.8 µM,3.26 µM,–,2.41 µM,–,1.16 µM,7.52 µM,–,> 47.5 µM
CCOC(=O)c1c(C)nc2c(c1N)CC(=O)N2Cc1ccc(OC)cc1,–,–,> 100 µM,> 100 µM,36.1 µM,> 100 µM,4.87 µM,> 100 µM,3.77 µM,> 100 µM,–,–,7.91 µM,> 100 µM,> 100 µM,> 100 µM,> 100 µM,> 100 µM,> 100 µM,> 100 µM
C=C(CN1C(=O)CN(C)C1=O)c1ccc(C(=O)Nc2ccccc2N)cc1,5.89 µM,30.4 µM,18.6 µM,58.7 µM,30.9 µM,> 100 µM,38.5 µM,> 100 µM,36.3 µM,> 100 µM,6.7 µM,36.3 µM,82.3 µM,> 100 µM,10.9 µM,41.5 µM,–,–,5.9 µM,74.5 µM
COc1cccc(N2CCN(CC(=O)N3CCN(c4nnc(-c5ccc(Cl)cc5)c(-c5ccc(Cl)cc5)n4)CC3)CC2)c1,51.7 µM,> 100 µM,14.8 µM,> 100 µM,35.1 µM,> 100 µM,37.9 µM,> 100 µM,34.2 µM,> 100 µM,5.98 µM,> 100 µM,12.3 µM,93.7 µM,6.47 µM,> 100 µM,20.6 µM,> 100 µM,9.89 µM,> 100 µM
CCN(Cc1cc(Nc2nc(C)cn3c(-c4cn[nH]c4)cnc23)sn1)C(C)(C)CO,0.622 µM,9.93 µM,0.0358 µM,11.5 µM,0.0293 µM,7.35 µM,0.11 µM,9.57 µM,0.0508 µM,4.35 µM,0.0127 µM,2.3 µM,0.578 µM,15.2 µM,0.0725 µM,0.812 µM,0.648 µM,16.2 µM,–,–
COc1ccc(/C=C/C(=O)c2cc(OC)c(OC)c(OC)c2)cc1OCc1cn(Cc2ccc(F)cc2)nn1,4.9 µM,> 100 µM,4.79 µM,> 100 µM,10.6 µM,41 µM,4.42 µM,> 100 µM,2.84 µM,> 100 µM,2.38 µM,10.7 µM,–,–,3 µM,7.3 µM,72.5 µM,> 100 µM,3.6 µM,> 100 µM
O=c1[nH]nnc2c1ncn2C1OC(CO)C(O)C1O (centres undefined),14.1 µM,> 100 µM,0.998 µM,32.5 µM,0.707 µM,12.2 µM,> 100 µM,> 100 µM,4.91 µM,76.9 µM,7.59 µM,> 100 µM,–,–,13 µM,> 100 µM,7.25 µM,> 100 µM,2.26 µM,> 100 µM
CCCCCCCCNc1cc2c3c(c1)CCCN3CCC2,1.03 µM,6.71 µM,–,–,3.06 µM,12.7 µM,3.29 µM,19.4 µM,2.56 µM,11.7 µM,1.11 µM,7.92 µM,0.559 µM,15.3 µM,0.774 µM,11.1 µM,2.05 µM,8.53 µM,0.433 µM,> 100 µM
O=C(c1ccccc1)c1ccccc1-c1ccccc1,14.5 µM,> 100 µM,1.52 µM,7.85 µM,1.65 µM,9.48 µM,5.45 µM,> 100 µM,5.14 µM,> 100 µM,3.17 µM,30.1 µM,4.22 µM,> 100 µM,0.986 µM,14.3 µM,8.79 µM,65.7 µM,–,–
O=C1C(Cl)=C(Nc2cccc(F)c2)C(=O)N1Cc1ccc(Cl)cc1,3.95 µM,20.8 µM,1.71 µM,13.8 µM,5.96 µM,> 28.4 µM,2.57 µM,16.1 µM,0.242 µM,4.7 µM,0.392 µM,2.7 µM,–,–,0.911 µM,12.9 µM,1.42 µM,10.8 µM,0.206 µM,> 32.1 µM
